From publication PMC11818041, “Pilot-Scale Production of Sericin-Derived Oligopeptides (SDOs) from Yellow Silk Cocoons: Peptide Characterization and Specifications” (Foods, 2025)
Read-outs that look alike come from different tables or passages of the source. Marks after values point to notes of the source that are not given here. Residues, ends and D or L forms follow the SMILES beside them.

Assays:
[1] = target: DPP-IV (Homo sapiens, UniProt P27487); test: DPP-IV inhibitory activity assay (GPN substrate); type: biochemical; details: for inhibition at 2500 µM / Inhibition (%) DPP-IV: synthetic peptide at 2.5 mM (final reaction concentration)
DPP-IV, sequence (P27487 whole entry, species assumed): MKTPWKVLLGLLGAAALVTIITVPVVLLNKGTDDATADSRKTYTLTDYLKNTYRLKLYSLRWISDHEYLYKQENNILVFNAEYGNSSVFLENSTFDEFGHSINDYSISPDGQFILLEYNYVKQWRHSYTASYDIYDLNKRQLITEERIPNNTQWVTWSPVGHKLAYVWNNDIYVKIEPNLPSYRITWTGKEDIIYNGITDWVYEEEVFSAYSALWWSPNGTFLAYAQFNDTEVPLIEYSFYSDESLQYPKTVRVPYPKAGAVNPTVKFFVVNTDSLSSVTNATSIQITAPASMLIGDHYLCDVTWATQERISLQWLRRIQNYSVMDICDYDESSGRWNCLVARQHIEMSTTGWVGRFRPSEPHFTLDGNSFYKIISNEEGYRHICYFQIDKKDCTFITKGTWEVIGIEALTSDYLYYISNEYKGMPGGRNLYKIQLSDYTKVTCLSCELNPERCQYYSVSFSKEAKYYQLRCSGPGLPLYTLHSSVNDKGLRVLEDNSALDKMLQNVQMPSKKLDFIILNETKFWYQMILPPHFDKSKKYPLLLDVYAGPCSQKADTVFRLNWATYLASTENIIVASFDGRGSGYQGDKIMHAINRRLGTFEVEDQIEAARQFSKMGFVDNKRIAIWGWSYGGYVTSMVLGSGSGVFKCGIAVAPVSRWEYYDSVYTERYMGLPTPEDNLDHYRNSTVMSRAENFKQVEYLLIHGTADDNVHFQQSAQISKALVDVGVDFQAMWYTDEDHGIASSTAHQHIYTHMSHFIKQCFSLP

[2] = target: ACE (Homo sapiens, UniProt P12821); test: ACE inhibitory activity assay (FAPGG substrate); type: biochemical; details: for inhibition at 200 µM: read-out: Inhibition (%) ACE
ACE, sequence (P12821 30-1306, species assumed): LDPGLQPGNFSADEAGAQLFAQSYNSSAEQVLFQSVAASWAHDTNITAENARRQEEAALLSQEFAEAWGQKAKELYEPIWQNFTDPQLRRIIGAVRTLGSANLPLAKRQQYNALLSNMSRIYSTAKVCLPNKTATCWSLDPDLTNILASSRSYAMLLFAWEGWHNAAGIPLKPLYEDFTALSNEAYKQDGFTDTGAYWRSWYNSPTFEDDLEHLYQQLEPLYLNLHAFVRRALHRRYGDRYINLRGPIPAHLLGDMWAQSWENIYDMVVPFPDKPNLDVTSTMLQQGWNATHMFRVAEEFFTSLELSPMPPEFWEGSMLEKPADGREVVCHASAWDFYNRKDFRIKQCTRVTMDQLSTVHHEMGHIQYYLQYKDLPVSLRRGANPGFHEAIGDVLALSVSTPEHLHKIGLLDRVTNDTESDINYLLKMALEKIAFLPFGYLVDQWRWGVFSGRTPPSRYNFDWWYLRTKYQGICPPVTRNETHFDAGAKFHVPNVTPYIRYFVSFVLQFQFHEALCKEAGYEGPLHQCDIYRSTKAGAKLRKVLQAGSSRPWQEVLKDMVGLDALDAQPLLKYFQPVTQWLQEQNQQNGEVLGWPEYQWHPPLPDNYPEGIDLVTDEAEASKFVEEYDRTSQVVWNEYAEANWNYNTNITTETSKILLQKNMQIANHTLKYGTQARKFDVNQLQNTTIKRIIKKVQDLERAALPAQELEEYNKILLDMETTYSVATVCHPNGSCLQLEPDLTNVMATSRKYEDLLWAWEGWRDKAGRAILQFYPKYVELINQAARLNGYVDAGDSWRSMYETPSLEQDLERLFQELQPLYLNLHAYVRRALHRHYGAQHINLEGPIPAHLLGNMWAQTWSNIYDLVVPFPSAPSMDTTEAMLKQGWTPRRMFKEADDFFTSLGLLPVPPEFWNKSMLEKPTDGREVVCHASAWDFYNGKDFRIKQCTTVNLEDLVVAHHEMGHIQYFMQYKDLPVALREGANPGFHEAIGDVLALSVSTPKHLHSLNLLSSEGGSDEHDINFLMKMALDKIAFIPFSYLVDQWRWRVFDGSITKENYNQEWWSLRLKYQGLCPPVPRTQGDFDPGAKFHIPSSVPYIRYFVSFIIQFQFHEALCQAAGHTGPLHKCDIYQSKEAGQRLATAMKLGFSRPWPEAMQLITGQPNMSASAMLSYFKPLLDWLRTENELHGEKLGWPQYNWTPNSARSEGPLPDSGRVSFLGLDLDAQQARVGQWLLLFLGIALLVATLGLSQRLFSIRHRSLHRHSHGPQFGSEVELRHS

[3] = Metal chelating activity (FeCl2/ferrozine); details: reference against which IC50 values were compared
Experimental: Following a 3 min dark incubation, 50 μL of 5 mM ferrozine was introduced and incubated for 20 min at ambient temperature in the absence of light. Absorbance was quantified at 562 nm. […] The chelating activity was determined using the following formula:Metal chelating activity (%) = [(Acontrol − Asample)/Acontrol] × 100

[4] = ABTS radical scavenging activity; details: standard against which IC50 values were compared
Experimental: The antioxidant activity was evaluated using a modified ABTS assay according to Laosam et al.. Then, ABTS stock solution was prepared by combining 7.0 mM ABTS with 2.6 mM potassium persulfate in 50 mM phosphate buffer (pH 7.4) and incubated in darkness for 12–16 h before use. Subsequently, the analysis was initiated by combining 20 μL of SDOs samples with 1980 μL of ABTS working solution (stock solution diluted with phosphate buffer to achieve an absorbance of 0.740 ± 0.020 at 734 nm). After 5 min of incubation in the dark, the absorbance was measured at 734 nm. […] With the formula below, the radical scavenging activity was calculated:Scavenging activity (%) = [(Acontrol − Asample)/Acontrol] × 100 where Acontrol and Asample represent the absorbance of control and sample, respectively.

[5] = design: method as in BIOPEP-UWM database; details: fragments in brackets, activities listed jointly; ref BIOPEP-UWM database; cited from earlier work
[6] = synthetic peptide, read-out: Inhibition (IC50 Value) DPP-IV
[7] = synthetic peptide at 0.2 mM (final reaction concentration)
[8] = synthetic peptide, read-out: Inhibition (IC50 Value) ACE

Molecule	inhibition at 2500 µM [1]	IC50 [1, 6]	inhibition at 200 µM [2, 7]	Inhibition (%) DPP-IV [1]	further results
CC(C)C[C@H](NC(=O)[C@H](CC(=O)O)NC(=O)[C@H](Cc1ccccc1)NC(=O)[C@H](Cc1ccccc1)NC(=O)[C@@H](N)CCC(=O)O)C(=O)N1CCC[C@H]1C(=O)N[C@@H](Cc1ccc(O)cc1)C(=O)N[C@@H](Cc1c[nH]cn1)C(=O)O (H-EFFDLPYH-OH)	45.7 ± 1.86%	2760 ± 30 µM	63.4 ± 1.6%		IC50 [2, 8]: 158 ± 2.2 µM
CC(C)C[C@H](NC(=O)[C@H](CO)NC(=O)[C@H](C)NC(=O)[C@H](CCC(=O)O)NC(=O)[C@H](C)NC(=O)[C@@H](N)C(C)C)C(=O)N1CCC[C@H]1C(=O)N[C@@H](CCCNC(=N)N)C(=O)O (H-VAEASLPR-OH)	55.2 ± 0.69%	1920 ± 60 µM	3.89 ± 0.61%		
N[C@@H](CS)C(=O)N[C@@H](CCC(=O)O)C(=O)N[C@@H](Cc1ccccc1)C(=O)O [CEF] (H-Cys-Glu-Phe-OH)	23.49 ± 0.14%				inhibition at 200 µM [2]: 91.67 ± 0.73%; IC50 [2, 8]: 14.86 ± 0.1 µM
O=C(O)CN(CCN(CC(=O)O)CC(=O)O)CC(=O)O [EDTA]					Metal chelating activity, value of the reference [3]: 0.31 mg/mL
Cc1c(C)c2c(c(C)c1O)CCC(C)(C(=O)O)O2 (stereo not shown) [Trolox]					ABTS radical scavenging, value of the standard [4]: 0.27 mg/mL
CSCC[C@H](NC(=O)[C@@H](N)Cc1c[nH]c2ccccc12)C(=O)N[C@@H](Cc1c[nH]cn1)C(=O)N[C@H](C(=O)N[C@@H](CCCNC(=N)N)C(=O)O)C(C)C [WMHVR] (H-WMHVR-OH)	33.1 ± 2.67%		61.3 ± 0.88%		IC50 [2, 8]: 118 ± 1.82 µM
CC(C)C[C@H](NC(=O)[C@H](CC(=O)O)NC(=O)[C@@H]1CCCN1C(=O)[C@@H](N)Cc1ccc(O)cc1)C(=O)O [YPDL] (H-YPDL-OH)	48.3 ± 0.59%		11.8 ± 2.26%		IC50 [1]: 2390 ± 60 µM; IC50 [2]: > 200 µM
AEF				21.93 ± 0.35 ^n %	Inhibition (%) ACE [2, 7]: 6.04 ± 1.41 ^o %
EFL				38.00 ± 1.38 ^fghi %	
EFYE				36.03 ± 0.51 ^ghij %	
LFDLMEH [SDO peptide identified in fraction F8]				37.28 ± 0.69 ^ghij %	
MED				38.87 ± 0.64 ^fghi %	
MEH				37.20 ± 3.18 ^ghij %	Inhibition (%) ACE [2, 7]: 11.20 ± 0.04 ^n %
NPR				36.70 ± 0.09 ^ghij %	Inhibition (%) ACE [2, 7]: 17.84 ± 0.68 ^k %
QTA				10.54 ± 1.90 ^o %	Inhibition (%) ACE [2, 7]: 16.48 ± 1.26 ^kl %
QTALVELLQ [SDO peptide identified in fraction F1]				22.20 ± 0.26 ^n %	
YDY					Previous Reported Bioactivity of the Fragments (BIOPEP-UWM Database) [5]: (YDY) Antioxidative

More lines, main results first:

inhibition at 2500 µM [1]	IC50 [1, 6]	inhibition at 200 µM [2, 7]	Inhibition (%) DPP-IV [1]	Molecule	further results
37 ± 0.95%		89.2 ± 1.07%		CC(C)C[C@H](NC(=O)[C@@H](N)Cc1ccc(O)cc1)C(=O)N[C@@H](Cc1ccc(O)cc1)C(=O)N[C@@H](CC(N)=O)C(=O)N[C@@H](C)C(=O)NCC(=O)N[C@@H](C)C(=O)N[C@@H](CCCNC(=N)N)C(=O)O (H-YLYNAGAR-OH)	IC50 [2, 8]: 77.28 ± 0.05 µM
40.5 ± 1.74%	3570 ± 130 µM	58.3 ± 0.92%		CC(C)C[C@H](NC(=O)[C@H](CC(C)C)NC(=O)[C@H](CC(C)C)NC(=O)[C@H](Cc1ccccc1)NC(=O)[C@@H](N)CCC(=O)O)C(=O)N[C@@H](Cc1c[nH]cn1)C(=O)N[C@@H](C)C(=O)O [EFLLLHA] (H-EFLLLHA-OH)	IC50 [2, 8]: 138.3 ± 1.04 µM
56.2 ± 1.55%	1430 ± 30 µM	34 ± 2.33%		CC(C)C[C@H](NC(=O)[C@H](CCC(=O)O)NC(=O)[C@H](Cc1ccc(O)cc1)NC(=O)[C@H](Cc1ccccc1)NC(=O)[C@@H](N)CCC(=O)O)C(=O)N[C@@H](C)C(=O)N[C@@H](CCCNC(=N)N)C(=O)O [EFYELAR] (H-EFYELAR-OH)	
40.4 ± 4.54%	2540 ± 100 µM			CC(C)C[C@H](NC(=O)[C@H](CCC(N)=O)NC(=O)[C@H](CCC(N)=O)NC(=O)[C@H](CO)NC(=O)[C@H](CC(N)=O)NC(=O)[C@@H](N)CCC(=O)O)C(=O)N[C@@H](Cc1c[nH]cn1)C(=O)O [ENSQQLH] (H-ENSQQLH-OH)	
47.4 ± 1.73%	2030 ± 150 µM	36.1 ± 0.54%		CC(C)C[C@H](NC(=O)[C@H](Cc1c[nH]c2ccccc12)NC(=O)[C@@H](NC(=O)[C@H](C)NC(=O)[C@@H](N)CC(C)C)[C@@H](C)O)C(=O)N1CCC[C@H]1C(=O)N[C@@H](CCCNC(=N)N)C(=O)O [LATWLPR] (H-LATWLPR-OH)	
45 ± 2.04%	3170 ± 170 µM	42.4 ± 2.64%		CC(C)C[C@H](N)C(=O)N[C@@H](Cc1ccccc1)C(=O)N[C@@H](CC(=O)O)C(=O)N[C@@H](CCC(N)=O)C(=O)N1CCC[C@H]1C(=O)N[C@@H](Cc1ccc(O)cc1)C(=O)N[C@@H](Cc1ccccc1)C(=O)O [LFDQPYF] (H-LFDQPYF-OH)	
42.88 ± 0.09%	2940 ± 90 µM	58.6 ± 2.61%		CC(C)C[C@H](NC(=O)[C@H](CC(N)=O)NC(=O)CNC(=O)[C@@H](N)CC(C)C)C(=O)N[C@@H](Cc1ccc(O)cc1)C(=O)N[C@@H](CC(=O)O)C(=O)N[C@@H](Cc1ccc(O)cc1)C(=O)O [LGNLYDY] (H-LGNLYDY-OH)	IC50 [2, 8]: 162.1 ± 1.19 µM
55.54 ± 0.34%	2380 ± 30 µM	69.53 ± 0.03%		CC(C)C[C@H](NC(=O)[C@H](CC(=O)O)NC(=O)[C@H](Cc1ccccc1)NC(=O)[C@@H](N)CC(N)=O)C(=O)N1CCC[C@H]1C(=O)N[C@@H](Cc1ccc(O)cc1)C(=O)N[C@@H](Cc1c[nH]cn1)C(=O)O [NFDLPYH] (H-NFDLPYH-OH)	IC50 [2, 8]: 77.2 ± 2.7 µM
41.1 ± 0.43%	2820 ± 220 µM	75.4 ± 1.53%		N=C(N)NCCC[C@H](NC(=O)[C@@H]1CCCN1C(=O)[C@H](Cc1ccccc1)NC(=O)[C@H](CCC(=O)O)NC(=O)[C@H](CS)NC(=O)[C@@H](N)Cc1c[nH]c2ccccc12)C(=O)O [WCEFPR] (H-WCEFPR-OH)	IC50 [2, 8]: 21.2 ± 1.86 µM
56.9 ± 1.47%	1350 ± 40 µM	86 ± 1.66%		CC(C)C[C@H](NC(=O)[C@H](CC(=O)O)NC(=O)[C@@H]1CCCN1C(=O)[C@@H](N)Cc1ccc(O)cc1)C(=O)N1CCC[C@H]1C(=O)N[C@@H](Cc1ccc(O)cc1)C(=O)N[C@@H](Cc1c[nH]cn1)C(=O)O [YPDLPYH] (H-YPDLPYH-OH)	IC50 [2, 8]: 18.1 ± 0.05 µM
			37.22 ± 0.43 ^ghij %	DDK	
			30.57 ± 1.97 ^kl %	EFF	
			33.85 ± 1.27 ^ijk %	LFD	
			35.84 ± 0.09 ^hij %	LGN	Inhibition (%) ACE [2, 7]: 44.11 ± 0.96 ^g %
			29.97 ± 0.60 ^kl %	PYH	Inhibition (%) ACE [2, 7]: 15.69 ± 1.82 ^klm %
			37.45 ± 1.55 ^ghij %	WGWNPR	Inhibition (%) ACE [2, 7]: 23.69 ± 2.90 ^j %
